This note sets out measurements from ChEMBL document CHEMBL1201862, “PubChem BioAssay data set” (2004).

One assay addresses T1, Insulin-degrading enzyme (Homo sapiens, UniProt P14735).
T1 sequence (P14735 whole entry): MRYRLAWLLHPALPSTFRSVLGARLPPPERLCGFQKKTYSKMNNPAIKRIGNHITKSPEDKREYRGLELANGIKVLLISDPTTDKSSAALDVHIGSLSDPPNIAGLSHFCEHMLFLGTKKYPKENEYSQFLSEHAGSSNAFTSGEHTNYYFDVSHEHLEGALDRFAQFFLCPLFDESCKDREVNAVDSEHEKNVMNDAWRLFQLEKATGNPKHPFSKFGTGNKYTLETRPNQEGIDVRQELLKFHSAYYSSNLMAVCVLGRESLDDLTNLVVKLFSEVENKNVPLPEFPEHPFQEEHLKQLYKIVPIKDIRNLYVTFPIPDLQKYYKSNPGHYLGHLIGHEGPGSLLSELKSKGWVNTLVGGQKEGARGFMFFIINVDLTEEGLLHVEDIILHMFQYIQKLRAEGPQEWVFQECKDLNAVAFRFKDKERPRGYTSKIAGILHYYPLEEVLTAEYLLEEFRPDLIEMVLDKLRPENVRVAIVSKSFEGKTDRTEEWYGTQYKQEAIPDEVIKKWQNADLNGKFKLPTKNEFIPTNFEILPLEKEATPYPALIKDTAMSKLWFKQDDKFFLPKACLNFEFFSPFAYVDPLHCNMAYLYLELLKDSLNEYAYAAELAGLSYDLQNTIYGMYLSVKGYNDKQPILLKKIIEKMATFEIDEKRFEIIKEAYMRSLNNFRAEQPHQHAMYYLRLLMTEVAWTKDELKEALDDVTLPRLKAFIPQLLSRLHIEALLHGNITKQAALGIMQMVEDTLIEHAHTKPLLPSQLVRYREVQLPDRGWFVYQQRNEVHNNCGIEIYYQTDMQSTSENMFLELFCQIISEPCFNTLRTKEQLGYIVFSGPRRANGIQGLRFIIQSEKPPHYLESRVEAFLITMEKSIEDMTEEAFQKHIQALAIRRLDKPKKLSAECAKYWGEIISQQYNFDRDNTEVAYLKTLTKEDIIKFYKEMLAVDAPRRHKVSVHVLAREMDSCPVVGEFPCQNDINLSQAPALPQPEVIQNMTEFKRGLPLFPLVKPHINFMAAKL
The assay can be described thus: activators of endogenous IDE in HEK cells, dose response, cell-based, fluorescence polarization (AID 588439). The class given is functional. On the technique in general: In fluorescence polarisation assays a small probe gives low polarisation when free and higher when bound to something large.

For assay [1], the target named is T2, Heat shock factor protein 1 (Mus musculus, UniProt P38532).
T2 sequence (P38532 whole entry): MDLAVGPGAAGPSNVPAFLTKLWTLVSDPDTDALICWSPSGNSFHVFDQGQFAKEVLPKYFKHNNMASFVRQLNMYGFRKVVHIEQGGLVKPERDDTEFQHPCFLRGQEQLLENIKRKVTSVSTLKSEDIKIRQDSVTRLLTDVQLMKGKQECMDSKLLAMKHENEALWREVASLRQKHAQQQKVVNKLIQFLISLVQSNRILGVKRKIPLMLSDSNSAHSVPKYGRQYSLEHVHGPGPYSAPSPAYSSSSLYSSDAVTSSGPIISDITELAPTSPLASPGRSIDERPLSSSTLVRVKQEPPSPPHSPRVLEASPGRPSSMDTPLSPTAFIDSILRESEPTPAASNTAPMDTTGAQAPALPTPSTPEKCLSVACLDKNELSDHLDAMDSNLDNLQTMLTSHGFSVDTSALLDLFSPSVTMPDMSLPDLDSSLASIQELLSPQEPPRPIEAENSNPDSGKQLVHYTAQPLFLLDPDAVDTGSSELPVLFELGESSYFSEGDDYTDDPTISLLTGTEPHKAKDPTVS
In words: inhibition of MG132-induced HSE-luciferase signal, confirmation, cell-based, NIH3T3, luminescence, dose retest (AID 2382).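 Also: NIH3T3 fibroblasts with HSF1-driven luciferase reporter stressed by proteasome inhibitor MG132; luminescence from HSF1-driven luciferase expression after 8 hours of MG132 stress.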 The class given is functional.

Assay [2] concerns the target T3, Short transient receptor potential channel 4 (Mus musculus, UniProt Q9QUQ5).
T3 sequence (Q9QUQ5 whole entry): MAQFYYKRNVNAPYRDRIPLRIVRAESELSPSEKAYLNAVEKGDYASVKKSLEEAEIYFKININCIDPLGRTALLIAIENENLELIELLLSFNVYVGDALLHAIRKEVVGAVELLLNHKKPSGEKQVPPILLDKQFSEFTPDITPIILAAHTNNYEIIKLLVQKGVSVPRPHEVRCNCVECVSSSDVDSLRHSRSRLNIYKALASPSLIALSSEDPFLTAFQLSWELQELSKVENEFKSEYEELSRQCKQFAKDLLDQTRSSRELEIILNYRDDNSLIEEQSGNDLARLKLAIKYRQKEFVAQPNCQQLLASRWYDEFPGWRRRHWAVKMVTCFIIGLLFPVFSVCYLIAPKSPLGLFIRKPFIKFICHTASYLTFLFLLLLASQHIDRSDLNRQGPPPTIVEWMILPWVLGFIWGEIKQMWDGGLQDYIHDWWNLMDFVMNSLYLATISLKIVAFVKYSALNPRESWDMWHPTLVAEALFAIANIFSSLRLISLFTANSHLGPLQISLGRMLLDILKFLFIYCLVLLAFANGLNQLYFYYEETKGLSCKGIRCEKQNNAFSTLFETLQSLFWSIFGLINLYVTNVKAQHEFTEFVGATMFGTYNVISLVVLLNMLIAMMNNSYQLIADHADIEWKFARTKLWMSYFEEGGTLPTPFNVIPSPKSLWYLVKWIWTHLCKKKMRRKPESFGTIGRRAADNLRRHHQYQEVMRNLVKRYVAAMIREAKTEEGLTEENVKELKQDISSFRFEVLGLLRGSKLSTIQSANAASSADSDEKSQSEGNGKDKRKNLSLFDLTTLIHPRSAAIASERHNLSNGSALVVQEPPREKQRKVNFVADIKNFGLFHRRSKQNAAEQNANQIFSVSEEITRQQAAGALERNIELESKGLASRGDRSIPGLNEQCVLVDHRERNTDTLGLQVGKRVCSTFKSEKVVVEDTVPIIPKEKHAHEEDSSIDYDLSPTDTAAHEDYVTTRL
The assay can be described thus: mouse TRPC4 channel activators, dose response, cell-based, HEK293 TRPC4/mu-opioid, Fluo-4 calcium (AID 434937). The assay is classed as functional.

The target in another assay is Prothrombin (Bos taurus, UniProt P00735). In words: thrombin inhibition, dose response, biochemical, fluorescence polarization, uHTS hits (AID 602369). The class given is functional.
For a further assay, the target named is Aurora kinase B (Homo sapiens, UniProt Q96GD4). The class given is functional.
Assay [3] can be described thus: inhibitors of firefly luciferase expression or activity, dose response, H4 neuroglioma cells, luminescence (AID 1990). The assay is classed as functional, cell-based.

For orientation: EC50 means the midpoint of the concentration-response curve. By IC50 is commonly meant the concentration at which inhibition is half-maximal. What is called Ki is a measure of affinity in units of concentration, obtained from inhibition or displacement.

Calls of active or inactive are those of the source.

Chain of Aurora kinase B (Q96GD4 whole entry): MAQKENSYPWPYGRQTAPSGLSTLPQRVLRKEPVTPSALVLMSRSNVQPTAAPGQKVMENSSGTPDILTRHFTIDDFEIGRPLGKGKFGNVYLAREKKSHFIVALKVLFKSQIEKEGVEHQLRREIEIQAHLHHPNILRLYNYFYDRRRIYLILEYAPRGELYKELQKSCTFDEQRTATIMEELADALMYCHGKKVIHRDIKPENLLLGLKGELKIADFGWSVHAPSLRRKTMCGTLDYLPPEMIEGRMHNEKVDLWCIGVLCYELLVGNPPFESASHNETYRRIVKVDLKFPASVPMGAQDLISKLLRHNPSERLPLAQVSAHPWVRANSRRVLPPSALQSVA

In the case of `CNC[C@H](Cc1ccccc1)NC[C@@H](Cc1cccc2ccccc12)NCCc1ccc(C)cc1`, the concentration for a half-maximal effect (EC50) on Insulin-degrading enzyme is 7.52 µM (active); in assay [1] it was 18.5 µM (active); in assay [2] it was 9.44 µM (active).

In the case of `O=C(N/N=C/c1c(O)ccc2ccccc12)c1[nH]ncc1Br`, the IC50 at Prothrombin is 91.6 µM (active). Consider `Nc1c(-c2ccc(NC(=O)Nc3cccc(C(F)(F)F)c3)cc2)cnc2c(-c3ccc4c(c3)OCO4)cnn12`, for which the inhibition constant (Ki) on Aurora kinase B is 1 µM (active).

With `CCN1C(=Cc2sc3ccccc3[n+]2C)C=Cc2cccc(C)c21`, the EC50 in assay [3] was 0.142 µM (active).
